Source: patent publication US11066447B2, “Aureobasidium derivatives and methods of synthesis” (AureoGen Biosciences, Inc., priority 2016, dated 2021)
Converted amounts (≈) assume the structure as drawn. Like-named read-outs stand apart in the source and are kept apart here. Numbered stars: 1 amine (or outer) side, 2 acyl side, 3 side chain; on linkers, the order of the positions; unused ones are H or OH. Square brackets hold non-standard residues; d marks the D form. Peptide text beside a SMILES is read from it. X35 = CN([C@@H](Cc1cccc(-c2ccc(-n3c4ccccc4c4ccccc43)cc2)c1)C(=O)[*:2])[*:1]; X31 = CN([C@@H](Cc1cccc(-c2cccc(C(F)(F)F)c2)c1)C(=O)[*:2])[*:1]; Hmp(2R,3S) = CC[C@H](C)[C@@H](O)C(=O)O; NMeVal(β-OH) = CN[C@H](C(=O)O)C(C)(C)O; NMeV = CN[C@H](C(=O)O)C(C)C

Assays:
[1] = tested on: C. albicans MMX 2000 ATCC 10231; assay: MIC assay (CLSI microdilution); assay type: cell-based; conditions: Candida albicans, ATCC10231, RPMI plus 0.002% Tween-80; read-out: MIC
Procedure: (§1) Aureobasidin and test compounds (i.e., AbA derivatives of the present invention) were received from Kalexsyn, Inc. (Kalamazoo, Mich.) as powder and were stored at 4° C. until the day of assay. […] amphotericin was obtained from Sigma Aldrich and stored under like conditions. […] Ethanol (95%) was used as a solvent and diluent for all AbA compounds. Amphotericin B was tested from 0.06-64 μg/mL. Amphotericin B (Sigma Aldrich; St. Louis, Mo.; Cat No. A9528-100MG, Lot No. 120M4087) was dissolved and diluted with dimethylsulfoxide (DMSO; Sigma Aldrich; St. Louis, Mo.; Cat No. 472301 Lot No. SHBD2072V).
(§2) The solvents were added to the test agents and the stock solutions stood for approximately 1 hr at room temperature prior to use to auto sterilize. Stock solutions were prepared at 40× the desired top concentration in the test plate.
(§3) All of the test isolates were originally received from either the American Type Culture Collection (ATCC), clinical labs, or directly from Aureogen Biosciences. Organisms stored by Micromyx were cultured on agar medium appropriate to each organism. Colonies were picked by swab from the isolation plates and put into suspension in appropriate broth containing cryoprotectant. The suspensions were aliquoted into cryogenic vials and maintained at −80° C.
(§4) Prior to testing, Candida isolates were streaked from the frozen vials on Sabouraud dextrose agar. The yeast isolates were incubated for 48 hours at 35° C. before use. The fungal isolates were obtained from enumerated fungal stocks previously prepared at Micromyx and stored in phosphate buffered saline at 4° C.
(§5) Test Media. The medium employed for the MIC assay was RPMI-1640 medium from HyClone Laboratories (Logan, Utah; Lot No. AYB60287A). The medium was prepared according to Clinical and Laboratory Standards Institute (CLSI) guidelines (1, 2), and modified to include 0.002% Tween-80. Candida parapsilosis ATCC 22019 (MMX 2323) and Aspergillus fumigatus ATCC MYA-3626 (MMX 5280) were also tested without Tween-80 to provide data for the quality control of amphotericin B in accordance with CLSI (3) and to assess the effect of Tween-80 on the activity of the test agents.
(§6) Test Procedure. The MIC assay method followed the procedure described by CLSI (1, 2) and employed automated liquid handlers to conduct serial dilutions and liquid transfers. Automated liquid handlers included the Multidrop 384 (Labsystems, Helsinki, Finland), Biomek 2000 and Biomek FX (Beckman Coulter, Fullerton Calif.). The wells in columns 2-12 in standard 96-well microdilution plates (Costar 3795) were filled with 150 μl of the appropriate diluent (95% EtOH for investigational compounds, 100% DMSO for amphotericin B). These assay plates would become the ‘mother plates’ from which the assay ‘daughter plates’ would be prepared. The drugs (300 μL at 40× the desired top concentration in the test plates) were dispensed into the appropriate well in Column 1 of the mother plates. The Biomek 2000 was used to make two-fold serial dilutions through Column 11 in the “mother plate”. The wells of Column 12 contained no drug and served as the organism growth control wells.
(§7) The daughter plates were loaded with 185 μL per well on the Multidrop 384 with RPMI plus 0.002% Tween-80 or RPMI containing no Tween-80 for the testing of the two QC isolates. The daughter plates were prepared on the Biomek FX instrument which transferred 5 μL of drug solution from each well of a mother plate to each corresponding well of each daughter plate in a single step.
(§8) A standardized inoculum of each organism was prepared per CLSI methods (1, 2). For the Candida isolates, colonies were picked from the streak plate and a suspension was prepared in RPMI to equal a 0.5 McFarland standard. This suspension was diluted 1:100 in RPMI resulting in a final concentration of approximately 0.5-2.5×10^3 CFU/mL. […]

[2] = tested on: C. neoformans MMX 0634 ATCC 90112; assay: MIC assay (CLSI microdilution); assay type: cell-based; conditions: Cryptococcus neoformans, ATCC90112, RPMI plus 0.002% Tween-80; read-out: MIC
Procedure: as §1, §2, §3, §4, §5, §6, §7, §8

[3] = tested on: A. fumigatus MMX 5280 ATCC MYA-3626; assay: MIC/MEC assay (CLSI microdilution); assay type: cell-based, Aspergillus fumigatus; conditions: Aspergillus fumigatus, 48 h
Procedure: as §1, §2, §3, §4, §5, §6, §7, §8

[4] = tested on: A. fumigatus MMX 6781 ATCC MYA-4609; assay: MIC/MEC assay (CLSI microdilution); assay type: cell-based; conditions: Aspergillus fumigatus; for MIC: 48 h, RPMI plus 0.002% Tween-80, read-out: MIC; for minimal effective concentration: RPMI plus 0.002% Tween-80, 48 hr
Procedure: as §1, §2, §3, §4, §5, §6, §7, §8

[5] = tested on: A. fumigatus MMX 6782 ATCC 13073; assay: MIC/MEC assay (CLSI microdilution); assay type: cell-based; conditions: Aspergillus fumigatus, ATCC13073, 48 h; for minimal effective concentration: RPMI plus 0.002% Tween-80, read-out: MEC; for MIC: RPMI plus 0.002% Tween-80, read-out: MIC
Procedure: as §1, §2, §3, §4, §5, §6, §7, §8

[6] = tested on: A. niger MMX 0624 ATCC 16888; assay: MIC/MEC assay (CLSI microdilution); assay type: cell-based; conditions: Aspergillus niger, ATCC16888, 48 h; for minimal effective concentration: RPMI plus 0.002% Tween-80, read-out: MEC; for MIC: RPMI plus 0.002% Tween-80, read-out: MIC
Procedure: as §1, §2, §3, §4, §5, §6, §7, §8

A. flavus MMX 5948 = assay: MIC/MEC assay (CLSI microdilution); assay type: cell-based; conditions: Aspergillus flavus, MMX5948, 48 h; for minimal effective concentration: RPMI plus 0.002% Tween-80; for MIC: RPMI plus 0.002% Tween-80, read-out: MIC
Procedure: as §1, §2, §3, §4, §5, §6, §7, §8

A. fumigatus MMX 5944 = assay: MIC/MEC assay (CLSI microdilution); assay type: cell-based; conditions: Aspergillus fumigatus, MMX5944, 48 h; for minimal effective concentration: RPMI plus 0.002% Tween-80; for MIC: RPMI plus 0.002% Tween-80, read-out: MIC
Procedure: as §1, §2, §3, §4, §5, §6, §7, §8

[7] = tested on: C. parapsilosis MMX 2323 ATCC 22019; assay: MIC assay (CLSI microdilution); assay type: cell-based, Candida parapsilosis; conditions: read-out: MIC
Procedure: as §1, §2, §3, §4, §5, §6, §7, §8

[8] = RPMI plus 0.002% Tween-80, read-out: MEC
[9] = RPMI plus 0.002% Tween-80, read-out: MIC
[10] = Without Tween-80, read-out: MEC
[11] = Without Tween-80, read-out: MIC
[12] = ATCC22019, RPMI plus 0.002% Tween-80

Row | MIC [1] | MIC [2] | MIC [3, 9] | MIC [3, 11] | MIC [4] | MIC [5] | MIC [6] | MIC (A. flavus MMX 5948) | MIC (A. fumigatus MMX 5944) | MIC [7, 12] | MIC ([7]; ATCC22019, Without Tween-80) | Compound | minimal effective concentration [3, 8] | minimal effective concentration [3, 10] | minimal effective concentration [4] | minimal effective concentration [5] | minimal effective concentration [6] | minimal effective concentration (A. flavus MMX 5948) | minimal effective concentration (A. fumigatus MMX 5944)
1 | 0.12 µg/mL | 0.25 µg/mL | > 64 µg/mL | > 64 µg/mL | > 64 µg/mL | > 64 µg/mL | 0.5 µg/mL | > 64 µg/mL | > 64 µg/mL | 0.5 µg/mL | 2 µg/mL (≈ 1.61 µM) | CC[C@H](C)[C@@H]1NC(=O)[C@@H]2CCCN2C(=O)[C@H](Cc2cccc(-c3cccc(C(F)(F)F)c3)c2)N(C)C(=O)[C@H](Cc2ccccc2)NC(=O)[C@H](C(C)C)N(C)C(=O)[C@@H]([C@@H](C)CC)OC(=O)[C@H](C(C)(C)O)N(C)C(=O)[C@H](CC(C)C)NC(=O)[C@H](C(C)C)N(C)C1=O [Compound 4] (cyclo(F[X31]PI[NMeV]L[NMeVal(β-OH)][Hmp(2R,3S)][NMeV])) | > 64 µg/mL | > 64 µg/mL | > 64 µg/mL | 1 µg/mL | 0.5 µg/mL | > 64 µg/mL | 1 µg/mL
2 | > 64 µg/mL | > 64 µg/mL | > 64 µg/mL | > 64 µg/mL | > 64 µg/mL | > 64 µg/mL | > 64 µg/mL | > 64 µg/mL | > 64 µg/mL | > 64 µg/mL | > 64 µg/mL | CC[C@H](C)[C@@H]1NC(=O)[C@@H]2CCCN2C(=O)[C@H](Cc2cccc(-c3ccc(-n4c5ccccc5c5ccccc54)cc3)c2)N(C)C(=O)[C@H](Cc2ccccc2)NC(=O)[C@H](C(C)C)N(C)C(=O)[C@@H]([C@@H](C)CC)OC(=O)[C@H](C(C)(C)O)N(C)C(=O)[C@H](CC(C)C)NC(=O)[C@H](C(C)C)N(C)C1=O [Compound 8] (cyclo(F[X35]PI[NMeV]L[NMeVal(β-OH)][Hmp(2R,3S)][NMeV])) | > 64 µg/mL | > 64 µg/mL | > 64 µg/mL | > 64 µg/mL | > 64 µg/mL | > 64 µg/mL | > 64 µg/mL
